Values of other authors, collected in patent publication US20190069585A1, “Compositions of micronutrients and phytochemicals for optimal human health” (priority 2017, published 2019).

Details: consumed orally by humans

- plasma levels of glutathione: do not significantly increase
SMILES: N[C@@H](CCC(=O)N[C@@H](CS)C(=O)NCC(=O)O)C(=O)O [glutathione]
